# Measured values reported in patent EP2179732A1, “PHARMACEUTICAL COMPOSITION COMBINING AN ENZYME HMG-COA REDUCTASE INHIBITING AGENT AND A GASTROINTESTINAL LIPASE ENZYME INHIBITING AGENT” (Espinosa Abdala, Leopoldo de Jesús, priority 2007, dated 2008).
# Marks after values point to notes of the source that are not given here.
# What was measured:
# [1] = system: obese patients with hypercholesterolemia and hypertriglyceridemia; experiment: Clinical comparative study of Orlistat, Atorvastatin and combination: lipid profile; type: in vivo; settings: for C-HDL Baseline change at 1 year / C-LDL Baseline change at 1 year / CT Baseline change at 1 year / TG Baseline change at 1 year: 1 Year versus baseline; for C-HDL / C-LDL / CT (Total Cholesterol) / TG (Triglycerides): average (SD)
# Description: (§1) Methods. Selected patients were obese with a Body Mass Index (IMC) >30 Kg/m^2; with border (Total cholesterol 200-240 mg./dL.) or severe (Total cholesterol ≥ 240 mg./dL.) hypercholesterolemia; with hypertriglyceridemia (≥ 150 mg./dL.); normal pressure patients (systolic pressure <140 mm Hg and diastolic pressure < 90 mm Hg).
# (§2) Patients were >50 years old. Patients were randomized for receiving in Group 1: Orlistat 1 capsule (120 mg.) in main meal.
# (§3) Compliance with treatment was assessed by counting capsules and with follow-up visits every 3 months. Total cholesterol, LDL cholesterol, HDL Cholesterol, Triglycerides in serum and blood pressure during baseline visit were assessed, and at 6 months and 12 months of treatment. Waist index was assessed.
# [2] = system: obese patients with hypercholesterolemia and hypertriglyceridemia; experiment: Clinical comparative study: body weight (body mass index, waist circumference reduction, weight loss); type: in vivo
# Description: as §1, §2, §3
# [3] = system: obese patients with hypercholesterolemia and hypertriglyceridemia; experiment: Clinical comparative study: blood pressure; type: in vivo
# Description: as §1, §2, §3
# [4] = system: obese patients with hypercholesterolemia and hypertriglyceridemia; settings: human, in vivo
# Description: as §1, §2, §3
# [5] = dose-response study; cited from earlier work
# [6] = system: plasma proteins; settings: in vitro; lipoproteins and albumin main attachment proteins; cited from earlier work
# [7] = dosage of 120 mg once a day; cited from earlier work
# [8] = cited from earlier work
structure (smiles),measurement,setting,value
CC(C)c1c(C(=O)Nc2ccccc2)c(-c2ccccc2)c(-c2ccc(F)cc2)n1CC[C@@H](O)C[C@@H](O)CC(=O)O [Atorvastatin],C-HDL Baseline change at 1 year,[1],12.3** %
same,C-LDL Baseline change at 1 year,[1],-33.0** %
same,CT Baseline change at 1 year,[1],-27.0** %
same,TG Baseline change at 1 year,[1],-25.0* %
same,C-HDL,[1]; 1 year of treatment,46 (5) mg./dL.
same,C-LDL,[1]; 1 year of treatment,104 (23) mg./dL.
same,CT (Total Cholesterol),[1]; 1 year of treatment,184 (23) mg./dL.
same,TG (Triglycerides),[1]; 1 year of treatment,125 (28) mg./dL.
same,C-HDL,[1]; 6 months of treatment,44 (5) mg./dL.
same,C-LDL,[1]; 6 months of treatment,151 (22)* mg./dL.
same,CT (Total Cholesterol),[1]; 6 months of treatment,191 (21)* mg./dL.
same,TG (Triglycerides),[1]; 6 months of treatment,126 (29) mg./dL.
same,IMC Baseline changes,[2]; 1 Year versus baseline,-4.1* %
same,PP Baseline changes,[2]; 1 Year versus baseline,-4.6* %
same,RCC Baseline changes,[2]; 1 Year versus baseline,-3.7* %
same,PP (Weight loss),[2]; 1 year,-7.3 (1.2)
same,RCC (Waist circumference reduction),[2]; 1 year,-3.1 (1.1) cm.
same,PP (Weight loss),[2]; 6 Months,-3.7 (1.1)
same,RCC (Waist circumference reduction),[2]; 6 Months,-1.5 (0.7) cm.
same,IMC Baseline changes,[2]; 6 Months versus baseline,-2.3%
same,PP Baseline changes,[2]; 6 Months versus baseline,-3.7%
same,RCC Baseline changes,[2]; 6 Months versus baseline,-1.5%
same,Diastolic Baseline changes,[3]; 1 Year versus baseline,-7.0* %
same,Systolic Baseline changes,[3]; 1 Year versus baseline,-6.0* %
same,Diastolic blood pressure [PAD],[3]; 1 year,83 (3) mm. Hg
same,Systolic blood pressure [PAS],[3]; 1 year,127 (4) mm. Hg
same,Diastolic blood pressure [PAD],[3]; 6 Months,85 (4) mm. Hg
same,Systolic blood pressure [PAS],[3]; 6 Months,130 (4) mm. Hg
same,Diastolic Baseline changes,[3]; 6 Months versus baseline,-5.0%
same,Systolic Baseline changes,[3]; 6 Months versus baseline,-3.0%
same,alterations as to serum transaminases or in creatinphosphokinase activity,[4],did not show alterations
same,reduce LDL cholesterol,[5],41-61%
same,reduce apolipoprotein B,[5],34-50%
same,reduce total cholesterol,[5],30-46%
same,reduce triglycerides,[5],14-33%
CCCCCCCCCCC[C@@H](C[C@@H]1OC(=O)[C@H]1CCCCCC)OC(=O)[C@H](CC(C)C)NC=O [Orlistat],C-HDL Baseline change at 1 year,[1],4.8%
same,C-LDL Baseline change at 1 year,[1],-17.0* %
same,CT Baseline change at 1 year,[1],-13.0* %
same,TG Baseline change at 1 year,[1],-30-3** %
same,C-HDL,[1]; 1 year of treatment,45 (6) mg./dL.
same,C-LDL,[1]; 1 year of treatment,152 (23) mg./dL.
same,CT (Total Cholesterol),[1]; 1 year of treatment,211 (25) mg./dL.
same,TG (Triglycerides),[1]; 1 year of treatment,100 (22) mg./dL.
same,C-HDL,[1]; 6 months of treatment,44 (5) mg./dL.
same,C-LDL,[1]; 6 months of treatment,163 (21) mg./dL.
same,CT (Total Cholesterol),[1]; 6 months of treatment,232 (22) mg./dL.
same,TG (Triglycerides),[1]; 6 months of treatment,120 (24) mg./dL.
same,IMC Baseline changes,[2]; 1 Year versus baseline,-6.2** %
same,PP Baseline changes,[2]; 1 Year versus baseline,-4.6** %
same,RCC Baseline changes,[2]; 1 Year versus baseline,-4.6* %
same,IMC (Body Mass Index),[2]; 1 year,27.3 (1.3) Kg./M^2
same,PP (Weight loss),[2]; 1 year,-6.6 (1.5)
same,RCC (Waist circumference reduction),[2]; 1 year,-4.1 (1.1) cm.
same,IMC (Body Mass Index),[2]; 6 Months,30.3 (1.4) Kg./M^2
same,PP (Weight loss),[2]; 6 Months,-4.0 (1.2)
same,RCC (Waist circumference reduction),[2]; 6 Months,-2.1 (0.7) cm.
same,IMC Baseline changes,[2]; 6 Months versus baseline,-3.2* %
same,PP Baseline changes,[2]; 6 Months versus baseline,-4.* %
same,RCC Baseline changes,[2]; 6 Months versus baseline,-2.1* %
same,Diastolic Baseline changes,[3]; 1 Year versus baseline,-8.0* %
same,Systolic Baseline changes,[3]; 1 Year versus baseline,-16.0* %
same,Diastolic blood pressure [PAD],[3]; 1 year,82 (3) mm. Hg
same,Systolic blood pressure [PAS],[3]; 1 year,128 (3) mm. Hg
same,Diastolic blood pressure [PAD],[3]; 6 Months,82 (3) mm. Hg
same,Systolic blood pressure [PAS],[3]; 6 Months,130 (3) mm. Hg
same,Diastolic Baseline changes,[3]; 6 Months versus baseline,-8.0%
same,Systolic Baseline changes,[3]; 6 Months versus baseline,-6.0%
same,adverse events,[4],Two patients from Group 1 showed adverse gastrointestinal events (fecal urgency)
same,attached to plasma proteins,[6],> 99%
same,maximum inhibition of fatty absorption,[7],30%
same,intact Orlistat concentrations,"[8]; at 8 hours after oral administration, not detectable",< 5 ng/mL
same,two main metabolites M1 and M3 as share of total plasma concentration,[8]; of the minimal systemically absorbed fraction of the dose,about 42%
